# Data: article PMC7059199, “Identification and structural insight of an effective PPARγ modulator with improved therapeutic index for anti-diabetic drug discovery” (Chemical Science, 2020)
# Assays:
# [1] = molecular target: T1, GST-PPARγ LBD (Homo sapiens, UniProt P37231); assay: LanthaScreen TR-FRET competitive binding assay, PPARγ; settings: competition of Fluormone (5 nM); 0.5 nM GST-PPARγ LBD
# T1 construct: 0.5 nM GST-PPARγ LBD was incubated with 5 nM Fluormone™; purchased Invitrogen
# T1 sequence (P37231 238-503 limits assumed): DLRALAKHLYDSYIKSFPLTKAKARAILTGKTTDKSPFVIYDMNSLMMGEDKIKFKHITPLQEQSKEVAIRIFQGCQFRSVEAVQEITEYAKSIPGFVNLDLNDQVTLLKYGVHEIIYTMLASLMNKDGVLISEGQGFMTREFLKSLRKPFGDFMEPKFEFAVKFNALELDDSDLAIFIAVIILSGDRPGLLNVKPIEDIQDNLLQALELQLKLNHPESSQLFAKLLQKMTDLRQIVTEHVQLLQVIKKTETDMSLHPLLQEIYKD
# Protocol: LanthaScreen™ TR-FRET assay (Invitrogen) was used for measuring the binding affinities of the ligands. 0.5 nM GST-PPARγ LBD was incubated with 5 nM Fluormone™ and Terbium-coated GST antibody.
# Competitive TR -FRET binding assay
# The GST PPARγ -LBD was labeled with a terbium-linked antibody and a fluorescent small molecule pan-PPAR ligand (Fluormone™ Pan-PPAR Green, Invitrogen) was used as a tracer that is displaced from the ligand binding domain upon agonist binding.
# Excitation of the terbium at 340 nm results in FRET to the fluorescent tracer, with
# Tracer displacment results is a loss of FRET signal between the terbium label and the fluorescent tracer.
# The inhibition constant (ki) for a competitor was calculated by applying the
# Cheng-Prusoff equation as following:
# the tracer, [tracer] is the concentration of Fluormone™ Pan-PPAR Green used in the
# [2] = tested on: 3T3-L1 cells; assay: 3T3-L1 adipocyte differentiation assay (Oil Red O staining); format: cell-based, mouse; settings: Rosi 10 μM; 2 days
# Protocol: One of the best documented side-effects of the PPARγ agonist drugs is weight gain as PPARγ is the key activator of adipogenesis. To determine whether VSP-77 promotes adipogenesis, we treated mouse fibroblast 3T3-L1 cells with 100 μM of VSP-77. […] Cells were incubated with Oil Red O, which stains adipocytes red.
# Fig. 6 3T3-L1 adipocyte differentiation assay. Oil Red O staining of 3T3-L1 fibroblast cells after differentiating with different ligands for 2 days. […]
# Adipocyte differentiation assay
# The adipocyte differentiation assay was performed with NIH 3T3-L1 preadipocytes obtained from ATCC. The 3T3-L1 preadipocytes were maintained in DMEM containing 10% FBS and antibiotics. For differentiation DMI (Dexamethazone 1 μM, 3-isobutyl-1-methyxanthine (IBMX) 0.5 mM and Insulin167 nM) and 10 μM of rosiglitazone were used as positive controls for the assay. VSP-77 was used at a 100 μM concentration. All the treatments have insulin at 167 nM concentration. Media with DMSO was used as a negative control. Differentiation was induced by treating post-confluent cultures with media containing the respective ligands for two days.
# Cells were stained with Oil Red O to estimate the lipid accumulation. The images were analyzed using ImageJ (National Institutes of Health). […]
# [3] = tested on: 3T3-L1 cells; assay: qPCR of adipogenic genes in 3T3-L1 cells; format: cell-based, mouse; settings: 7 days after treatment
# Protocol: Encouraged by the above results and to further determine whether VSP-77 activates PPARγ in 3T3-L1 cells, we evaluated the ability of VSP-77 to stimulate PPARγ activity by measuring the mRNA levels of endogenous PPARγ-regulated downstream genes linked to adipogenesis (primers are listed in Table S1 ^†).
# Fig. 7 Expression of adipogenic genes in 3T3-L1 cells was analyzed by quantitative PCR (qPCR). Relative mRNA levels of the adipocyte differentiation genes PPARγ, aP2, CD36, LPL, C/EBPα and Fasn. mRNA was extracted from differentiating cells 7 days after treatment (n = 3, error bars = SEM). […]
# (average±standard deviation calculated from three separate experiments). […]
# Cells were stained with Oil Red O to estimate the lipid accumulation. The images were analyzed using ImageJ (National Institutes of Health).
# For real-time PCR analysis, 1-2 μg total RNA was reverse-transcribed using the SuperScript cDNA Reverse Transcription Kit (Invitrogen) with SYBR Green PCR Master Mix (Invitrogen) and gene specific primers (Table S1) using a Roche Light Cycler 480 machine. The relative expression of mRNA was determined after normalization to β-actin level using the ΔΔ-Ct method. […]
# [4] = molecular target: hERG potassium ion channel (Homo sapiens, UniProt Q12809); parameters: method as in PMID 23054723; settings: read-out: hERG inhibition IC50; cited from earlier work
# hERG potassium ion channel, sequence (Q12809 whole entry): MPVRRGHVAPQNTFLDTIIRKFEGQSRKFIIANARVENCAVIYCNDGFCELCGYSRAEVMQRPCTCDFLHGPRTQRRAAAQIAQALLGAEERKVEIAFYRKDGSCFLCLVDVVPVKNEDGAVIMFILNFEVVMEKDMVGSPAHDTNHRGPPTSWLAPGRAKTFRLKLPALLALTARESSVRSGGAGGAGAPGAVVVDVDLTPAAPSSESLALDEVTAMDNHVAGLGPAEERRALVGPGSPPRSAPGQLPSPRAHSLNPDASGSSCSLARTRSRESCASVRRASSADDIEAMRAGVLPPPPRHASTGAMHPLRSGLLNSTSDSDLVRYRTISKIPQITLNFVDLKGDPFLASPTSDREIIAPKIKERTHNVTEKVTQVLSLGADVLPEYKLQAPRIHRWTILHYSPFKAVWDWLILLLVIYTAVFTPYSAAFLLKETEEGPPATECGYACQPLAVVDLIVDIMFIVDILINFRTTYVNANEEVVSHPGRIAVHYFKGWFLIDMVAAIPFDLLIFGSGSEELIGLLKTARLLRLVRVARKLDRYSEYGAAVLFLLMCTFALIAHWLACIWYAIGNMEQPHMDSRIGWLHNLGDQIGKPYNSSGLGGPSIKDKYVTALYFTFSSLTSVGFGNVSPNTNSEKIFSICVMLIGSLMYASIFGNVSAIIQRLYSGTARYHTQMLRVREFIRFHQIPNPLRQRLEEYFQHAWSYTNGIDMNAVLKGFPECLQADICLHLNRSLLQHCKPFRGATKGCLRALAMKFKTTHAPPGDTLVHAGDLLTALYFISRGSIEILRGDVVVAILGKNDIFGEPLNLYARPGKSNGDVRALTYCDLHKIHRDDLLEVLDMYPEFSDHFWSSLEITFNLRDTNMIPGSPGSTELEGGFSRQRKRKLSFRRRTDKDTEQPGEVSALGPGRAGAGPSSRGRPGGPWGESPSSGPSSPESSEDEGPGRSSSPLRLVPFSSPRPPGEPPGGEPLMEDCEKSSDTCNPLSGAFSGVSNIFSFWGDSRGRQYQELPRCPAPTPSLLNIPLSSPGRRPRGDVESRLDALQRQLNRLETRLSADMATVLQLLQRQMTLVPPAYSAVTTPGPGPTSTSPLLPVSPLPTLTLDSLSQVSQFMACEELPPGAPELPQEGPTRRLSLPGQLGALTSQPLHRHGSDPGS
# [5] = tested on: HFD mice; assay: Anti-diabetic activity and side effects in HFD mice, 7 weeks; settings: for expression of Glut4 and Adiponectin in adipose tissue (mRNA) / expression of adipogenic genes PPARγ, AP2, CD36, LPL, C/EBPa and Fasn in adipose tissue (mRNA): (S)-VSP-77 5 mg/kg i.p.
# Protocol: HFD mice were injected with (S)- or (R)-VSP-77 for 7 weeks.
# Laboratory Animal Co., Shanghai, China) were housed in a temperature-controlled
# For chronic treatment, mice were fed high-fat diets (60% calories from fat; Research Diets, New Brunswick, NJ, USA) or standard diets ad libitum. At 14 weeks of age, mice were randomly assigned to
# (5 mg/day/kg or 10 mg/kg/day), VSP-77 (5 mg/kg/day) and (S)- or (R)-VSP-77 (5 mg/kg/day) were intraperitoneally injected and INT131 (30 mg/kg/day) was orally treated. The glucose tolerance test (2 g/kg glucose i.p.) and determination of fasting blood glucose and insulin levels were performed after 6 h of starvation. At the end, the animals were anatomized and blood and tissues were collected for further
# [6] = molecular target: T2, PPARα (Homo sapiens, UniProt Q07869); assay: Competitive TR-FRET assay, PPARα; settings: at 10 μM
# T2 sequence (Q07869 1-468): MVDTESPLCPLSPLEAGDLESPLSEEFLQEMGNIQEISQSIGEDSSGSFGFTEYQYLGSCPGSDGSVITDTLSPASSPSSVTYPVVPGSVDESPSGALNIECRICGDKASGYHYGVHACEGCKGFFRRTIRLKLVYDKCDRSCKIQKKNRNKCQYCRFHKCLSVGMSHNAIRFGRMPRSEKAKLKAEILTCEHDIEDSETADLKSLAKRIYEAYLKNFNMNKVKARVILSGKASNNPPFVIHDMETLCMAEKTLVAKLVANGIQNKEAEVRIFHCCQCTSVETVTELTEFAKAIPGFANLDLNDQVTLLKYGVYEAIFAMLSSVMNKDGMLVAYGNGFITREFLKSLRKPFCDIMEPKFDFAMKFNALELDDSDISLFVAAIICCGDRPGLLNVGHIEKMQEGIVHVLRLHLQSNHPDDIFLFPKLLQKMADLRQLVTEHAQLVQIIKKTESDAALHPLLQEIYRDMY
smiles,measurement,setting,value
"CCCCCCCCCC(=O)O [DA, decanoic acid, reference compound]",Ki,[1],50.5 µM
"CN(CCOc1ccc(CC2SC(=O)NC2=O)cc1)c1ccccn1 (centres unmarked) [Rosi, rosiglitazone, reference compound]",% Area stained by Oil Red O,[2],37%
same,"expression of adipogenic genes PPARγ, aP2, CD36, LPL, C/EBPα and Fasn (mRNA)",[3],robustly induced
same,IC50,[4],18.8 µM
same,body weight gain,"[5]; (S)-/(R)-VSP-77 5 mg/kg i.p., Rosi 10 mg/kg i.p.",observed
same,expression of Glut4 and Adiponectin in adipose tissue (mRNA),[5]; Rosi 10 mg/kg i.p.,increased
same,"expression of adipogenic genes PPARγ, AP2, CD36, LPL, C/EBPa and Fasn in adipose tissue (mRNA)",[5]; Rosi 10 mg/kg i.p.,robustly stimulated
"CC(C)(Sc1ccc(CCN(CCCCC2CCCCC2)C(=O)NC2CCCCC2)cc1)C(=O)O [GW7647, reference compound]",binding capability for PPARα,[6],~100%
CCCCCCC[C@H](OCC(=O)O)c1ccc(Cl)cc1 [(S)-VSP-77],CDK5-mediated Ser-273 phosphorylation of PPARγ in white adipose tissue,[5]; 5 mg/kg i.p.,effectively blocked
same,fasting glucose levels,[5]; 5 mg/kg i.p.,significant reduction
same,fasting insulin levels,[5]; 5 mg/kg i.p.,significant reduction
same,fluid retention,[5]; 5 mg/kg i.p.,does not promote
same,expression of Glut4 and Adiponectin in adipose tissue (mRNA),[5]; Rosi 10 mg/kg i.p.,increased
same,"expression of adipogenic genes PPARγ, AP2, CD36, LPL, C/EBPa and Fasn in adipose tissue (mRNA)",[5]; Rosi 10 mg/kg i.p.,weakly induced
